Measured values published in US20240148835A1, “TREATING DISORDERS ASSOCIATED WITH DYRK1A DYSFUNCTION” (UNIVERSITY OF FLORIDA RESEARCH FOUNDATION, INCORPORATED, priority 2021, published 2024).
Entries after “also recorded” stand apart in the source; their conditions may differ.

How the values were obtained:
[1] = system: mouse model of Rett syndrome; settings: chronic administration, same paradigm; cited from earlier work
Dyrk1a cHets = test: Chronic (1-3)IGF-1 treatment from P14: cortical and neuronal morphology; assay type: in vivo, mouse
Description: To test whether administration of the active peptide (1-3)IGF-1 restores cortical growth in cHets, we utilized the following paradigm: controls and cHets were treated daily with either (1-3)IGF-1 or vehicle beginning at P14. A behavioral battery began at P56 and daily injections continued until the mice were sacrificed for downstream analysis (FIG. 17A). […] As the impact of loss-of-function Dyrk1a mutations on spine density has not been investigated in vivo, we measured spine density on primary neurites of layer V pyramidal neurons in the mPFC. […] Together, these findings indicate that chronic (1-3)IGF-1 treatment beginning at P14 rescues microcephaly and neuronal undergrowth in Dyrk1a cHets.
(1-3)IGF-1 was acquired from VWR/Bachem (catalog #H-2468.1000) and dissolved in saline with 0.01% BSA fresh every day. Intraperitoneal injections of 10 mg kg′ (1-3)IGF-1 or vehicle were delivered daily at 8 a.m. starting on P14 and ending on P85. […] The S6K1 inhibitor PF-4708671 was acquired from Medkoo Biosciences (#406432) dissolved in 10% DMSO, 10% tween 80 and 80% water. (1-3)IGF-1 (10 mg kg′) and PF-4708671 (50 mg kg^−1) or vehicle were injected subcutaneously into pups from P0 to P7. Rapamycin was acquired from LC laboratories (R-5000) and dissolved in 4% ethanol, 5% tween-80, and 5% PEG400 in PBS. (1-3)IGF-1 (10 mg kg′) and Rapamycin (1 mg kg′) or vehicle were injected subcutaneously into pups from P0 to P7. SB216763 was acquired from TOCRIS (#1616) and dissolved in 5% DMSO and 0.9% saline in dH20. SB216763 (0.5 mg kg′) was injected subcutaneously into pups from P0 to P7.
Adult animals were perfused with 4% PFA and pups underwent rapid decapitation and dissection. After 18 hours post-fixation in 4% PFA, brains were incubated in a 20% sucrose/PBS solution at 4° C. for 2-3 days and embedded in Tissue-Tek OCT compound (Sakura). 40 μm sections were collected on Superfrost/Plus slides and stained. DAPI was used for nuclear labeling (Invitrogen, catalog #D3571). Slides were mounted with Vectashield HardSet and images were obtained with an Olympus VS120 microscope and processed using the VS-DESKTOP software (Olympus) or ImageJ (NIH). Ventricle size was analyzed by drawing an ROI around the entire ventricle in 2-3 plane-matched sections per animal.
Following rapid decapitation, brains were removed and processed using the FD Rapid Golgistain™ kit (FD Neurotechnologies, Columbia MD) following the manufacturer's instructions. A Leica vibrating microtome was used to cut 100 μm coronal sections in 6% sucrose in PBS. The sections were then mounted on gelatin-coated slides and stained using the FD Rapid Golgistain™ kit. Individual neurons were imaged using a Leica DM5500B 20× objective and reconstructed using Neuromantic software. After reconstruction, Sholl analysis was performed in ImageJ using the Simple Neurite Tracer. Primary neurites were selected for spine density analysis where the number of spines was counted and divided by the length of the neurite fragment. Soma size was measured using the ROI freehand tool on imageJ (NIH).

[2] = system: cHet primary cortical neurons; test: In vitro primary cortical neuron culture, Sholl analysis of Ctip2+ neurons; assay type: cell-based, mouse
Description: Lastly, to test whether (1-3)IGF-1 treatment rescues the decreased complexity of Dyrk1a cHet neurons, we cultured control and cHet primary cortical neurons. Neurons analyzed were restricted to Ctip2+ neurons, as we are focused on the impact of Dyrk1a mutations on the growth and connectivity of layer V pyramidal neurons.
In vitro primary neuronal culture: Brains from P0 mice were removed, and whole cortices were dissected. Individual cortices were placed into 1 mL chilled dissecting media (1× HBSS (14175-095), 30 mM glucose, 60 μM HEPES). After aspiration of the dissecting media, the tissue was enzymatically dissociated with papain (LS003126) that was previously diluted 1:80 in pre-warmed plating media [Neurobasal A (10888-022), 5% FBS (16000044), and 1% penicillin/streptomycin (p/s)/0.25% glutamine (10378-016)] and incubated at 37° C. for 15 min. The papain was removed, and the tissue was pipetted into a single-cell suspension in plating media. The suspensions were filtered using 40 μm nylon cell strainers (Fisher Scientific, #352340), and the filtered suspension was centrifuged at 280 RCF for 5 min. […] Samples of the suspensions were diluted 1:4 in trypan blue, and cells were counted with a manual hemocytometer for determination of sample concentration. […]
All coverslip images were taken at 40× magnification on an Olympus VS-120 epifluorescence microscope and analyzed with ImageJ (NIH). […]

(1-3)IGF-1: a tripeptide cleaved from the N-terminus of IGF-1; acquired from VWR/Bachem, CAS No. 32302-76-4 (GPE; Insulin-like growth factor 1; UniProt P05019 49-51, looked up, fragment)
lifespan, motor coordination, cardiac function, microcephaly, spine density, and synaptic function [1]: significantly improved | neuronal complexity of layer V pyramidal neurons in the mPFC (Sholl analysis) (Dyrk1a cHets; daily from P14, adult cHets): restored the neuronal complexity; also recorded: rescued | soma size of layer V pyramidal neurons (Dyrk1a cHets; daily from P14, adult cHets): restored the significantly smaller neuronal soma size; also recorded: rescued | ventricle area in cHets (Dyrk1a cHets; daily from P14, adult cHets): normalized; also recorded: rescued | spine density of layer V pyramidal neurons in the mPFC (Dyrk1a cHets; daily from P14, adult cHets, primary neurites): significantly increased; also recorded: partially restored | cortex mass (cortical growth) of cHets (Dyrk1a cHets; daily i.p. 10 mg kg from P14, adult cHets): rescued cortical growth in cHets; also recorded: restored | cortex mass (cortical growth) of controls (Dyrk1a cHets; daily i.p. 10 mg kg from P14, controls): no effect on controls | neuronal complexity (Sholl arborization) of cHet neurons ([2]; 100 ng/mL daily from DIV13 to DIV15, Ctip2+ neurons, DIV15): rescued; also recorded: rescues decreased arborization | neuronal complexity of control neurons ([2]; 100 ng/mL daily from DIV13 to DIV15, DIV15): did not affect control neurons
